Assay results: PubChem BioAssay AID248 (DTP/NCI, 2004)
“And” between values parts separate entries of the source, which are not always exact repeats. Equal entries are not always repeated. Inconclusive results and toxic doses are left out. Rule as the data show it: active = T/C of 150% or more; inactive = T/C below 125%. Square brackets hold non-standard residues; d marks the D form. Peptide text beside a SMILES is read from it. * marks the point of attachment. ξ: configuration not given here. Cbz = O=C(OCc1ccccc1)*; ξNle = CCCCC(N)C(=O)O

Test system: L1210 leukemia ip in BDF1 mice, survival T/C
Experiment: NCI In Vivo Anticancer Drug Screen. Data for tumor model L1210 Leukemia (intraperitoneal) in B6D2F1 (BDF1) mice
Conditions: endpoint: mean survival time, higher = longer survival
Outline: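 Ratio derived from survival: compound-dosed mice over vehicle-dosed mice, all bearing a transplantable tumor.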

[1] = dose: 50.0 mg/kg/injection, schedule: Q01DX009 (ip), vehicle: saline
[2] = dose: 100.0 mg/kg/injection, schedule: Q04DX003 (ip), vehicle: saline
[3] = dose: 200.0 mg/kg/injection, schedule: Q04DX003 (ip), vehicle: saline
[4] = dose: 100.0 mg/kg/injection, schedule: Q04DX003 (ip), vehicle: Klucel (hydroxypropylcellulose) (HPC)
[5] = dose: 200.0 mg/kg/injection, schedule: Q04DX003 (ip), vehicle: Klucel (hydroxypropylcellulose) (HPC)
[6] = dose: 400.0 mg/kg/injection, schedule: Q04DX003 (ip), vehicle: Klucel (hydroxypropylcellulose) (HPC)
[7] = dose: 100.0 mg/kg/injection, schedule: Q01DX009 (ip), vehicle: Klucel (hydroxypropylcellulose) (HPC)
[8] = dose: 200.0 mg/kg/injection, schedule: Q01DX009 (ip), vehicle: Klucel (hydroxypropylcellulose) (HPC)
[9] = dose: 400.0 mg/kg/injection, schedule: Q01DX009 (ip), vehicle: Klucel (hydroxypropylcellulose) (HPC)

Measured: T/C

Cc1c(F)c(I)c(Br)c(C)c1[N+](=O)[O-]
inactive: dose: 75.0 mg/kg/injection, schedule: Q04DX003 (ip), vehicle: Klucel (hydroxypropylcellulose) (HPC) 104 % of control | dose: 150.0 mg/kg/injection, schedule: Q04DX003 (ip), vehicle: Klucel (hydroxypropylcellulose) (HPC) 88 % of control | dose: 300.0 mg/kg/injection, schedule: Q04DX003 (ip), vehicle: Klucel (hydroxypropylcellulose) (HPC) 93 % of control

CNC(=O)N(c1ccccc1)C1CCCCC1
inactive: [1] 112 % of control | dose: 100.0 mg/kg/injection, schedule: Q01DX009 (ip), vehicle: saline 103 % of control | [2] 104 % of control | dose: 200.0 mg/kg/injection, schedule: Q01DX009 (ip), vehicle: saline 103 % of control | [3] 97 % of control

CCCCC(NC(=O)CNC(=O)CNC(=O)OCc1ccccc1)C(=O)O (stereo not drawn) (Cbz-Gly-Gly-[ξNle]-OH)
inactive: [4] 108 % of control | [5] 104 % of control | [6] 96 % of control

O=c1[nH]c2cscc2c(=O)n1OS(=O)(=O)c1ccccc1
inactive: [7] 93 % of control | [8] 95 % of control | [9] 100 % of control

CCCCCCOC(=O)CCCCCCCCCCC(=O)CCCCCC
inactive: dose: 50.0 mg/kg/injection, schedule: Q01DX009 (ip), vehicle: Klucel (hydroxypropylcellulose) (HPC) 97 % of control | dose: 50.0 mg/kg/injection, schedule: Q04DX003 (ip), vehicle: saline 101 % of control | [7] 108 % of control | [2] 103 % of control | [8] 92 % of control | [3] 106 % of control

[Br][V]([Br])[Br]
inactive: dose: 12.0 mg/kg/injection, schedule: Q01DX009 (ip), vehicle: saline 97 % of control | dose: 25.0 mg/kg/injection, schedule: Q01DX009 (ip), vehicle: saline sonified 92 % of control | dose: 25.0 mg/kg/injection, schedule: Q01DX009 (ip), vehicle: saline 93 % of control | [1] 102 % of control | [2] 102 % of control

CN=C(NC)c1ccc(NC(=O)c2cccc(C(=O)Nc3ccc(C(=NC)NC)cc3)c2)cc1
inactive: dose: 15.0 mg/kg/injection, schedule: Q01DX Z (ip), vehicle: saline 110 % of control | dose: 30.0 mg/kg/injection, schedule: Q01DX Z (ip), vehicle: saline 119 % of control | dose: 60.0 mg/kg/injection, schedule: Q01DX Z (ip), vehicle: saline 86 % of control

COc1ccc(C(=O)c2ccc(Cl)s2)cc1
inactive: dose: 100.0 mg/kg/injection, schedule: Q04DX003 (ip), vehicle: gum acacia 96 % of control | dose: 200.0 mg/kg/injection, schedule: Q04DX003 (ip), vehicle: gum acacia 91 % of control | dose: 400.0 mg/kg/injection, schedule: Q04DX003 (ip), vehicle: gum acacia 89 % of control

c1ccc(-c2cncc(CNCc3cncc(-c4ccccc4)c3)c2)cc1
inactive: dose: 100.0 mg/kg/injection, schedule: Q01DX001 (ip), vehicle: Klucel (hydroxypropylcellulose) (HPC) 102 % of control | dose: 200.0 mg/kg/injection, schedule: Q01DX001 (ip), vehicle: Klucel (hydroxypropylcellulose) (HPC) 95 % of control | dose: 400.0 mg/kg/injection, schedule: Q01DX001 (ip), vehicle: Klucel (hydroxypropylcellulose) (HPC) 110 % of control

CC(=O)C(CCC#N)(CCC#N)C(C)=O
inactive: dose: 50.0 mg/kg/injection, schedule: Q04DX002 (ip), vehicle: Klucel (hydroxypropylcellulose) (HPC) 101 % of control | dose: 100.0 mg/kg/injection, schedule: Q04DX002 (ip), vehicle: Klucel (hydroxypropylcellulose) (HPC) 95 % of control and 105 % of control | dose: 200.0 mg/kg/injection, schedule: Q04DX002 (ip), vehicle: Klucel (hydroxypropylcellulose) (HPC) 100 % of control | dose: 400.0 mg/kg/injection, schedule: Q04DX002 (ip), vehicle: Klucel (hydroxypropylcellulose) (HPC) 97 % of control and 86 % of control

C=CC[P+](CC)(c1ccccc1)c1ccccc1
inactive: dose: 3.13 mg/kg/injection, schedule: Q01DX009 (ip), vehicle: saline 97 % of control

CCOc1ccc(Cl)cc1C1N(Cc2ccc(OC)cc2)CCCN1Cc1ccc(OC)cc1
inactive: dose: 100.0 mg/kg/injection, schedule: Q01DX001 (ip), vehicle: carboxymethylcellulose (CMC) 98 % of control | dose: 200.0 mg/kg/injection, schedule: Q01DX001 (ip), vehicle: carboxymethylcellulose (CMC) 98 % of control | dose: 400.0 mg/kg/injection, schedule: Q01DX001 (ip), vehicle: carboxymethylcellulose (CMC) 102 % of control

CSc1nc(Cl)c2ccn(C)c2n1
inactive: dose: 75.0 mg/kg/injection, schedule: Q01DX001 (ip), vehicle: other 100 % of control | dose: 150.0 mg/kg/injection, schedule: Q01DX001 (ip), vehicle: other 96 % of control | dose: 300.0 mg/kg/injection, schedule: Q01DX001 (ip), vehicle: other 100 % of control

CCOc1ccc(NC(=O)CC(C)=O)cc1
inactive: dose: 25.0 mg/kg/injection, schedule: Q04DX003 (ip), vehicle: other 95 % of control | dose: 50.0 mg/kg/injection, schedule: Q04DX003 (ip), vehicle: other 100 % of control | dose: 100.0 mg/kg/injection, schedule: Q04DX003 (ip), vehicle: other 96 % of control

CC(=O)N1CCCC1=O
inactive: [7] 100 % of control | [4] 96 % of control | [8] 100 % of control | [5] 102 % of control | [9] 95 % of control | [6] 102 % of control

Cc1ccc(Cl)cc1NC(=O)Nc1ccc(C)c(NC(=O)Nc2cc(Cl)ccc2C)c1
inactive: dose: 100.0 mg/kg/injection, schedule: Q01DX009 (ip), vehicle: saline with Tween-80 87 % of control | dose: 100.0 mg/kg/injection, schedule: Q04DX003 (ip), vehicle: saline with Tween-80 88 % of control | dose: 200.0 mg/kg/injection, schedule: Q01DX009 (ip), vehicle: saline with Tween-80 92 % of control | dose: 200.0 mg/kg/injection, schedule: Q04DX003 (ip), vehicle: saline with Tween-80 86 % of control | dose: 400.0 mg/kg/injection, schedule: Q01DX009 (ip), vehicle: saline with Tween-80 98 % of control | dose: 400.0 mg/kg/injection, schedule: Q04DX003 (ip), vehicle: saline with Tween-80 90 % of control

O=C1CC(c2ccc(OCN(CCCl)CCCl)cc2)CC(=O)C1CN(CCCl)CCCl (configuration not stated)
inactive: dose: 0.2 mg/kg/injection, schedule: Q01DX009 (ip), vehicle: carboxymethylcellulose (CMC) 95 % of control | dose: 0.37 mg/kg/injection, schedule: Q01DX009 (ip), vehicle: saline 122 % of control | dose: 0.39 mg/kg/injection, schedule: Q01DX009 (ip), vehicle: carboxymethylcellulose (CMC) 102 % of control | dose: 0.5 mg/kg/injection, schedule: Q01DX009 (ip), vehicle: carboxymethylcellulose (CMC) 101 % of control | dose: 0.9 mg/kg/injection, schedule: Q01DX009 (ip), vehicle: carboxymethylcellulose (CMC) 107 % of control | dose: 1.0 mg/kg/injection, schedule: Q01DX009 (ip), vehicle: carboxymethylcellulose (CMC) 104 % of control | dose: 1.4 mg/kg/injection, schedule: Q01DX009 (ip), vehicle: carboxymethylcellulose (CMC) 87 % of control | dose: 2.0 mg/kg/injection, schedule: Q01DX009 (ip), vehicle: carboxymethylcellulose (CMC) 114 % of control | dose: 3.0 mg/kg/injection, schedule: Q01DX009 (ip), vehicle: saline 106 % of control and 90 % of control | dose: 4.0 mg/kg/injection, schedule: Q01DX001 (ip), vehicle: saline 104 % of control and 109 % of control | dose: 6.0 mg/kg/injection, schedule: Q04DX003 (ip), vehicle: saline 123 % of control | dose: 7.5 mg/kg/injection, schedule: Q01DX001 (ip), vehicle: saline 122 % of control | dose: 8.58 mg/kg/injection, schedule: Q01DX001 (ip), vehicle: carboxymethylcellulose (CMC) 124 % of control | dose: 10.0 mg/kg/injection, schedule: Q01DX009 (ip), vehicle: carboxymethylcellulose (CMC) 93 % of control | dose: 13.0 mg/kg/injection, schedule: Q01DX001 (ip), vehicle: carboxymethylcellulose (CMC) 114 % of control | dose: 19.5 mg/kg/injection, schedule: Q01DX001 (ip), vehicle: carboxymethylcellulose (CMC) 118 % of control | dose: 0.1 micrograms/kg/injection, schedule: Q01DX001 (ip), vehicle: saline 100 % of control | dose: 0.2 micrograms/kg/injection, schedule: Q01DX001 (ip), vehicle: saline 102 % of control | dose: 0.5 micrograms/kg/injection, schedule: Q01DX001 (ip), vehicle: saline 100 % of control | dose: 1.0 micrograms/kg/injection, schedule: Q01DX001 (ip), vehicle: saline 100 % of control
active: dose: 2.0 mg/kg/injection, schedule: Q01DX001 (ip), vehicle: saline 193 % of control | dose: 6.6 mg/kg/injection, schedule: Q01DX009 (ip), vehicle: carboxymethylcellulose (CMC) 157 % of control
